From US9457033B2, “Steroid alkaloids and uses thereof as antimicrobial agents against electron transport-deficient microbes and as potentiators for antimicrobial agents against pathogenic bacteria” (priority 2011, dated 2016)
≈ marks a conversion by molar mass, not a printed value. Counter-ions that a name gives are not always drawn.

Assays:
Assay type in all cases: cell-based, Staphylococcus aureus
[1] = test system: S. aureus SCV strain NewbouldΔhemB; test: MIC of compounds against SCV; details: for MIC: Staphylococcus aureus, read-out: MIC of Cpd against SCV hemB; for MIC of Cpd against SCV hemB: provided in categories (strong ≦ 0.5; moderate 4-8; low > 8)
S. aureus ATCC 29213 [2] = test: MIC, microdilution in CAMHB 24 h, with or without tomatidine/compound; details: for MIC: Staphylococcus aureus; for Fold (−TO/+TO): tomatidine at 8 μg/ml
S. aureus ATCC 29213 [3] = test: Checkerboard assay, aminoglycoside and tomatidine; details: for FIC index: aminoglycoside with tomatidine, tomatidine MIC considered 32 μg/ml, values overestimated; for Aminoglycoside MIC: checkerboard; for MIC: Staphylococcus aureus, ATCC29213, checkerboard
Description: This checkerboard protocol (Eliopoulos and Moellering, 1996) was conducted by a microdilution method similar to that use for standard MICs determination. In 96 wells plates, antibiotics were loaded at a 4× concentration (where X is the maximal tested concentration) in well A1 and at a 2× concentration in the others wells of the column 1. Antibiotics were serially diluted 1:1 from the column 2 to column 10. […] Wells A12, B12, […] are positive untreated controls whereas wells […] are negative non-inoculated controls. […] The FIC index was calculated as follow (Eliopoulos and Moellering, 1996): FIC […]/MICB, where A and B are MICs of compounds A and B in combination and where MICA and MICB are the MICs of compound A alone and of compound B alone, respectively, and FICA and FICB are the FICs of compound A and of compound B, respectively.

[4] = ATCC29213, read-out: MIC of Cpd against ATCC29213
[5] = gentamicin with 8 μg/ml of Cpd, provided in categories of synergy (1-2 no or mild; 4-16 moderate or strong)
[6] = ATCC29213, compound alone, read-out: MIC of Cpd against ATCC29213

Compound	MIC [1] [µg/mL]	Fold (MIC of GEN alone/MIC of GEN with Cpd) (S. aureus ATCC 29213 [2]; [5])	MIC of Cpd against SCV hemB [1]	MIC of Cpd against ATCC29213 (S. aureus ATCC 29213 [2]; compound alone) [µg/mL]	other results
C[C@]12CC[C@H](O)C[C@@H]1CC[C@@H]1[C@@H]2CC[C@]2(C)[C@@H](C(=O)CN3CCCCC3)CC[C@@H]12 [Compound 48, 21-piperidinopregnanolone]	> 8	1-2 fold			MIC (S. aureus ATCC 29213 [2]; [4]): > 16 µg/mL
CN(C)CC(=O)[C@H]1CC[C@H]2[C@@H]3CC[C@H]4C[C@@H](O)CC[C@]4(C)[C@H]3CC[C@]12C [Compound 47, N,N-dimethyl-21-aminopregnanolone]	> 8	1-2 fold			MIC (S. aureus ATCC 29213 [2]; [4]): > 16 µg/mL
C[C@H]1CC[C@@]2(NC1)O[C@H]1C[C@H]3[C@@H]4CC[C@H]5C[C@H](O)CC[C@]5(C)[C@H]4CC[C@]3(C)[C@H]1[C@@H]2C.Cl [Compound 23, 3α-hydroxytomatidine hydrochloride Salt]		4-16 fold	4 to 8 µg/mL	>16	
CNCC(=O)[C@H]1CC[C@H]2[C@@H]3CCC4CC(O)CC[C@]4(C)[C@H]3CC[C@]12C.Cl (some centres unmarked) [Compound 49, N-methyl-21-aminopregnanolone hydrochloride salt]		1-2 fold	>8 µg/mL	>16	
C[C@H]1CC[C@]2(NC1)O[C@@]1(C)C[C@@]3(C)[C@@H]4CC[C@@]5(C)C[C@@H](O)CC[C@]5(C)[C@@]4(C)CC[C@]3(C)[C@@]1(C)[C@@H]2C.O=C(O)CC(O)(CC(=O)O)C(=O)O [Compound 58, tomatidine citrate]	≤ 0.5	4-16 fold			MIC (S. aureus ATCC 29213 [2]; [4]): > 16 µg/mL
C[C@H](CN)CCC[C@@H](C)C1[C@@H](O)C[C@H]2[C@@H]3CC[C@H]4C[C@@H](O)CC[C@]4(C)[C@H]3CC[C@]12C (some centres unmarked) [Compound 26]	≤ 0.5	4-16 fold			MIC (S. aureus ATCC 29213 [2]; [4]): > 16 µg/mL
CC(N)[C@H]1CC[C@H]2[C@@H]3CC[C@H]4C[C@@H](O)CC[C@]4(C)[C@H]3CC[C@]12C (stereo partly drawn) [Compound 30a, pregnan-3β-ol-20-amine]	> 8	1-2 fold			MIC (S. aureus ATCC 29213 [2]; [6]): > 16 µg/mL
CS(=O)(=O)O.C[C@H]1CC[C@]2(NC1)O[C@H]1C[C@H]3[C@@H]4CC[C@H]5C[C@@H](O)CC[C@]5(C)[C@H]4CC[C@]3(C)[C@H]1[C@@H]2C [Compound 57, tomatidine methanesulfonate]		4-16 fold	≦0.5 μg/ml	>16	
C[C@H]1CC[C@@]2(O[C@H]3C[C@H]4[C@@H]5CC[C@H]6C[C@@H](O)CC[C@]6(C)[C@H]5CC[C@]4(C)[C@H]3[C@@H]2C)N(C=O)C1 [Compound 21, N-formyl tomatidine]		1-2 fold	>8 µg/mL	>16	
CC(NCCCN(C)C)[C@H]1CC[C@H]2[C@@H]3CC[C@H]4C[C@@H](O)CC[C@]4(C)[C@H]3CC[C@]12C (stereo partly drawn) [Compound 32, pregnan-3β-ol-20-((N,N-dimethylamino)propyl)amine]	> 8	4-16 fold			MIC (S. aureus ATCC 29213 [2]; [6]): > 16 µg/mL
NCC[C@H](O)C(=O)N[C@@H]1C[C@H](N)[C@@H](O[C@H]2O[C@H](CN)[C@@H](O)[C@H](O)[C@H]2O)[C@H](O)[C@H]1O[C@H]1O[C@H](CO)[C@@H](O)[C@H](N)[C@H]1O [Amikacin, amikacin]					FIC index (S. aureus ATCC 29213 [3]): ≦0.133; Aminoglycoside MIC (S. aureus ATCC 29213 [3]; tomatidine 0 μg/ml): 2 µg/mL; Aminoglycoside MIC (S. aureus ATCC 29213 [3]; tomatidine 0.06 μg/ml): 2 µg/mL; Aminoglycoside MIC (S. aureus ATCC 29213 [3]; tomatidine 0.12 μg/ml): 0.5 µg/mL; Aminoglycoside MIC (S. aureus ATCC 29213 [3]; tomatidine 0.25 μg/ml): 0.25 µg/mL; Aminoglycoside MIC (S. aureus ATCC 29213 [3]; tomatidine 0.5 μg/ml): 0.25 to 0.5 µg/mL; Aminoglycoside MIC (S. aureus ATCC 29213 [3]; tomatidine 1 μg/ml): 0.25 to 1 µg/mL; Aminoglycoside MIC (S. aureus ATCC 29213 [3]; tomatidine 2 μg/ml): 0.25 to 1 µg/mL; Aminoglycoside MIC (S. aureus ATCC 29213 [3]; tomatidine 4 μg/ml): 0.25 µg/mL; Aminoglycoside MIC (S. aureus ATCC 29213 [3]; tomatidine 8 μg/ml): 0.5 µg/mL; MIC −TO (S. aureus ATCC 29213 [2]; ATCC 29213, absence of tomatidine): 2 µg/mL (≈ 3.42 µM); MIC +TO (S. aureus ATCC 29213 [2]; ATCC 29213, presence of tomatidine at 8 μg/ml): 0.5 µg/mL; Fold (−TO/+TO) (S. aureus ATCC 29213 [2]; ATCC 29213): 4 fold
pregnan-3β-ol-20-(aminoethyl)amine hydrochloride Salt [Compound 42]		1-2 fold	4 to 8 µg/mL	>16	
C[C@H]1CC[C@]2(NC1)O[C@H]1C[C@H]3[C@@H]4CC[C@H]5CC(=O)CC[C@]5(C)[C@H]4CC[C@]3(C)[C@H]1[C@@H]2C.Cl [Compound 25, 3-oxotomatidine hydrochloride Salt]		4-16 fold	≦0.5 μg/ml	>16	
CC(=O)[C@H]1CC[C@H]2[C@@H]3CC[C@H]4C[C@@H](O)CC[C@]4(C)[C@H]3CC[C@]12C [Compound 28, Pregnanolone]	> 8	1-2 fold			MIC (S. aureus ATCC 29213 [2]; [4]): > 16 µg/mL
C[C@]12CC[C@H]3[C@@H](CCC4CC(O)CC[C@@]43C)[C@@H]1CC[C@@H]2C(=O)CN1CCNCC1.Cl (some centres unmarked) [Compound 50, 21-piperazinopregnanolone hydrochloride Salt]		1-2 fold	>8 µg/mL	>16	
Solasodan		1-2 fold	>8 µg/mL	>16	
[H]/N=C(/N)N[C@H]1[C@H](O)[C@@H](O)[C@H](O[C@@H]2O[C@@H](C)[C@](O)(C=O)[C@H]2O[C@@H]2O[C@@H](CO)[C@H](O)[C@@H](O)[C@@H]2NC)[C@@H](N/C(N)=N\[H])[C@@H]1O [Streptomycin, streptomycin]					MIC (S. aureus ATCC 29213 [3]; tomatidine 0 μg/ml): 4 to 8 µg/mL; MIC (S. aureus ATCC 29213 [3]; tomatidine 0.06 μg/ml): 4 µg/mL; MIC (S. aureus ATCC 29213 [3]; tomatidine 0.12 μg/ml): 2 µg/mL; MIC (S. aureus ATCC 29213 [3]; tomatidine 0.25 μg/ml): 1 to 2 µg/mL; MIC (S. aureus ATCC 29213 [3]; tomatidine 0.5 μg/ml): 1 µg/mL; MIC (S. aureus ATCC 29213 [3]; tomatidine 1 μg/ml): 1 µg/mL; MIC (S. aureus ATCC 29213 [3]; tomatidine 2 μg/ml): 1 µg/mL; MIC (S. aureus ATCC 29213 [3]; tomatidine 4 μg/ml): 1 µg/mL; MIC (S. aureus ATCC 29213 [3]; tomatidine 8 μg/ml): 1 µg/mL; FIC index (S. aureus ATCC 29213 [3]): ≦0.199; Fold (−TO/+TO) (S. aureus ATCC 29213 [2]; ATCC 29213): 4-8 fold; MIC (S. aureus ATCC 29213 [2]; ATCC29213, ATCC 29213, absence of tomatidine, read-out: MIC −TO): 4 to 8 µg/mL (≈ 6.88 to 13.8 µM); MIC (S. aureus ATCC 29213 [2]; ATCC29213, ATCC 29213, presence of tomatidine at 8 μg/ml, read-out: MIC +TO): 1 µg/mL
pregnan-3β-ol-20-(aminopropyl)amine hydrochloride Salt [Compound 43]		1-2 fold	4 to 8 µg/mL	>16	
C=CCOC1CCC2(C)C(CCC3C2CCC2(C)C3CC3OC4(CCC(C)CN4)C(C)C32)C1.Cl (centres unmarked) [Compound 56, O-allyltomatidine hydrochloride Salt]			≦0.5 μg/ml	8 to 16	Fold (MIC of GEN alone/MIC of GEN with Cpd) (S. aureus ATCC 29213 [2]; gentamicin with Compound 56 used at 4 μg/ml, categories of synergy): 4-16 fold
C[C@H]1CC[C@]2(NC1)O[C@H]1C[C@H]3[C@@H]4CC[C@H]5C[C@@H](O)CC[C@]5(C)[C@H]4CC[C@]3(C)[C@H]1[C@@H]2C [Tomatidine hydrochloride salt]	≤ 0.5	4-16 fold			MIC (S. aureus ATCC 29213 [2]; [4]): > 16 µg/mL
pregnan-3β-ol-20-(aminobutyl)amine hydrochloride Salt [Compound 44]		1-2 fold	>8 µg/mL	>16	
CC(O)[C@H]1CC[C@H]2[C@@H]3CC[C@H]4C[C@@H](O)CC[C@]4(C)[C@H]3CC[C@]12C (stereo in doubt) [Compound 54, pregnane-3,20-diol]	> 8	1-2 fold			MIC (S. aureus ATCC 29213 [2]; [6]): > 16 µg/mL
